{
  "source": "paper PMC8153610",
  "about": "“Oleacein Intestinal Permeation and Metabolism in Rats Using an In Situ Perfusion Technique” (Pharmaceutics, 2021)",
  "key": {"[1]": {"experiment": "Stability in the perfusion solution (transport medium) at 37 °C", "type": "physicochemical", "conditions": "for Presence of degradation products / derivatives in the perfusion solution (stability study): OLEA in transport medium, 60 min", "protocol": "The transport medium (TM; pH 7, 9.7 g/L HBSS buffered with HEPES 10 mM) was used to infuse the compounds via the intestine. […] Red phenol was assayed at 0.1 mg/mL. The stability of these test compounds, sampled at different times, was monitored in the perfusion solution at 37 °C for 60 min. Stability study and lumen samples: The stability and perfusate OLEA samples were defrosted and centrifuged (11,000× g, 4 °C, 10 min), and 100 µL of the upper phase was transferred to vials for analysis."}, "[2]": {"experiment": "Metabolite profiling in lumen, plasma and ileum tissue after SPIP (LC–ESI–LTQ–Orbitrap–MS)", "type": "in vivo", "protocol": "The SPIP studies were performed in anesthetized rats according to the method described by López-Yerena and coworkers; the donor blood and surgical procedure (Figure 1) were as described in that study. Regarding the procedure of donor blood, the rats were anesthetized by isoflurane inhalation (2.5%), and the whole blood was collected via cardiac puncture. […]. In the case of the rats that underwent surgery, the rats received intraperitoneal administration of pentobarbital sodium (Dolethal) at a dose of 60 mg/kg, and a maintenance dose of isoflurane (1.5%) was given 50 min after the induction dose. Body temperature was maintained at 37 ± 0.5 °C throughout the experiment by means of a homeothermic blanket. An ileal segment of approximately 7–10 cm was cannulated. […] The phenol red included in the perfusion solution was used as non-absorbable marker for measuring water transport. To avoid the oxidation of OLEA, we carried out the SPIP experiments in a laboratory room with infrared light. Samples of both the intestinal lumen and mesenteric blood were collected simultaneously at 5 min intervals for 60 min. The outflow perfusate samples were collected in 2 mL amber vials and the blood was collected in pre-weighed lithium-heparinized tubes (BD Vacutainer). Next, the perfusate samples were centrifuged (7516× g for 10 min at 4 °C), and the tubes with blood samples were weighed and centrifuged (3000× g for 10 min at 4 °C). The supernatants were collected and immediately stored at −80 °C awaiting analysis by LC–ESI–LTQ–Orbitrap–MS.\nPlasma: The extraction of OLEA and its metabolites was carried out with protein precipitation. Initially, the samples were thawed and centrifuged (11,000× g, 10 min at 4 °C). To precipitate proteins, we blended 100 µL of plasma with cold acetonitrile containing 2% of formic acid (1:5 v/v). Samples were vortex-mixed for 1 min and kept at −20 °C for 20 min. The samples were then centrifuged (11,000× g, 4 °C, 10 min), and finally 100 µL of the supernatant was transferred to vials for analysis.\nStability study and lumen samples: The stability and perfusate OLEA samples were defrosted and centrifuged (11,000× g, 4 °C, 10 min), and 100 µL of the upper phase was transferred to vials for analysis. […].\nIleum tissue: The intestinal segment perfunded with OLEA in the SPIP experiments was also analyzed to quantify the OLEA and its metabolites retained in the tissue. First, the intestinal segment was rinsed by several perfusions with TM and then cut into small sections and homogenized after the addition of water/acetonitrile (1:1 (v/v) with 0.1% ascorbic acid) with a small tissue disruptor (T10 basic ULTRA-TURRAX®, IKA laboratory technology, Staufen, Germany). The samples were sonicated in an ice bath (5 min), shaken for 1 min, and centrifuged (11,000× g, 4 °C, 10 min). To precipitate proteins, we blended 100 µL of the upper layer with cold acetonitrile containing 2% of formic acid (1:3 v/v). Samples were vortex-mixed for 1 min, kept at −20 °C for 20 min, and centrifuged again (11,000× g, 4 °C, 10 min) before analyzing the supernatant.\nThe quantification of OLEA and red phenol in the samples and the profiling and structural characterization of OLEA metabolites was carried out using LC–ESI–LTQ–Orbitrap–MS. LC separation was performed using an Accela chromatograph (Thermo Scientific, Hemel Hempstead, UK) equipped with a quaternary pump, a photodiode array detector, and a thermostated autosampler. A 5-μL sample aliquot was injected onto an Acquity^TM UPLC® BEH C18 Column (2.1 × 100 mm, i.d., 1.7 µm particle size) coupled to an Acquity^TM UPLC® BEH C18 Pre-Column (2.1 × 5 mm, i.d., 1.7 µm particle size) (Waters Corporation®, Wexford, Ireland) with the column temperature set at 50 °C. Eluent A was 0.05% (v/v) formic acid in water, and eluent B was 0.05% formic acid in methanol. […]. […]"}, "[3]": {"conditions": "cited from earlier work"}, "[4]": {"design": "method as in PMID 26904279", "conditions": "oral administration 300 mg/kg in rats; cited from earlier work"}, "[5]": {"experiment": "Single-pass intestinal perfusion (SPIP) with mesenteric blood sampling: permeability and absorption", "type": "in vivo", "conditions": "ileum, SPIP in rats", "protocol": "The transport medium (TM; pH 7, 9.7 g/L HBSS buffered with HEPES 10 mM) was used to infuse the compounds via the intestine. […] Red phenol was assayed at 0.1 mg/mL. The stability of these test compounds, sampled at different times, was monitored in the perfusion solution at 37 °C for 60 min.\nDifferences were considered significant at p < 0.05."}, "[6]": {"conditions": "cited from earlier work", "remark": "listed apart in the source"}, "[7]": {"conditions": "after OLEA perfusion (SPIP, 60 min)"}},
  "note": "Where two headings read alike, the source gives them in different places.",
  "data": [
    {"compound": "OCCc1ccc(O)c(O)c1", "note": "[M2, hydroxytyrosol]", "values": [
      {"measurement": "Presence of degradation products / derivatives in the perfusion solution (stability study)", "setting": "[1]", "result": "absence"},
      {"measurement": "Detection in lumen, plasma and ileum tissue samples", "setting": "[2]; rat, in vivo", "result": "found in lumen, plasma, and ileum tissue"},
      {"measurement": "Time of highest concentration", "setting": "[2]; rat, in vivo", "result": 55, "unit": "min"},
      {"measurement": "Metabolite level in plasma relative to lumen (fold higher)", "setting": "[2]; rat, in vivo, 60 min", "result": 27, "unit": "fold"}
    ]},
    {"compound": "C/C=C(/CO)C(CC=O)CC(=O)OCCc1ccc(O)c(O)c1", "note": "(stereo not shown) [M3]", "values": [
      {"measurement": "Detection in lumen, plasma and ileum tissue samples", "setting": "[2]; [7]", "result": "detected in lumen, plasma, and ileum tissue"}
    ]},
    {"compound": "C/C=C(/C=O)C(CC(=O)O)CC(=O)OCCc1ccc(O)c(O)c1", "note": "(stereo not shown) [M4]", "values": [
      {"measurement": "Detection in lumen, plasma and ileum tissue samples", "setting": "[2]; [7]", "result": "detected in lumen, plasma, and ileum tissue"},
      {"measurement": "Metabolite level in plasma relative to lumen (fold higher)", "setting": "[2]; after OLEA perfusion, at 60 min", "result": 29, "unit": "fold"},
      {"measurement": "Time of highest concentration", "setting": "[2]; plasma and lumen samples, after OLEA perfusion, p < 0.05", "result": 60, "unit": "min"}
    ]},
    {"compound": "C/C=C(/C=O)C(CC(=O)OCCc1ccc(O)c(O)c1)CC(O)O", "note": "(stereo not shown) [M5]", "values": [
      {"measurement": "Presence of degradation products / derivatives in the perfusion solution (stability study)", "setting": "[1]", "result": "traces"},
      {"measurement": "Detection in lumen, plasma and ileum tissue samples", "setting": "[2]; [7]", "result": "detected in lumen, plasma, and ileum tissue"}
    ]},
    {"compound": "C/C=C(/C=O)C(CC=O)CC(=O)OCCc1ccc(O)c(OC)c1", "note": "(stereo not shown) [M6]", "values": [
      {"measurement": "Detection in lumen, plasma and ileum tissue samples", "setting": "[2]; [7]", "result": "found in ileum tissue samples but not in the plasma and lumen"}
    ]},
    {"compound": "C/C=C(/C=O)C(CC(=O)O)CC(=O)OCCc1ccc(O)c(OC)c1", "note": "(stereo not shown) [M7]", "values": [
      {"measurement": "Detection in lumen, plasma and ileum tissue samples", "setting": "[2]; [7]", "result": "detected in plasma and, after being secreted by an efflux membrane protein, in lumen samples"}
    ]},
    {"compound": "C/C=C(/C=O)C(CC(=O)OCCc1ccc(O)c(OC)c1)CC(O)O", "note": "(stereo not shown) [M8]", "values": [
      {"measurement": "Detection in lumen, plasma and ileum tissue samples", "setting": "[2]; [7]", "result": "found in ileum tissue samples but not in the plasma and lumen"}
    ]},
    {"compound": "CC=C(CO)C(CC=O)CC(=O)OCCc1ccc(OC2OC(C(=O)O)C(O)C(O)C2O)c(O)c1", "note": "(stereo not shown) [M9]", "values": [
      {"measurement": "Main product of phase II biotransformation", "setting": "[2]; all the samples (plasma, lumen, ileum tissue)", "result": "main product of phase II biotransformation reactions in all the samples"},
      {"measurement": "Time of highest relative abundance", "setting": "[2]; lumen samples, after OLEA perfusion, p < 0.05", "result": "55 to 60", "unit": "min"},
      {"measurement": "Time of highest relative abundance", "setting": "[2]; plasma, after OLEA perfusion, p < 0.05", "result": "45 to 60", "unit": "min"}
    ]},
    {"compound": "CC=C(C=O)C(CC(=O)OCCc1ccc(OC2OC(C(=O)O)C(O)C(O)C2O)c(OC)c1)CC(O)O", "note": "(stereo not shown) [M11]", "values": [
      {"measurement": "Detection in lumen, plasma and ileum tissue samples", "setting": "[2]; [7]", "result": "detected in lumen and ileum tissue samples but not in plasma"}
    ]},
    {"compound": "COc1ccc2cc([C@H](C)C(=O)O)ccc2c1", "note": "[Naproxen]", "values": [
      {"measurement": "Peff ± SD", "setting": "[3]; Colon", "result": "2.06 ± 1.04 × 10^−4 cm/s"},
      {"measurement": "Peff ± SD", "setting": "[3]; Ileum, ref 56", "result": "1.78 ± 0.52 × 10^−4 cm/s"},
      {"measurement": "Peff ± SD", "setting": "[3]; Ileum, ref 57", "result": "1.17 ± 0.23 × 10^−4 cm/s"},
      {"measurement": "Peff ± SD", "setting": "[3]; Jejunum, ref 33", "result": "1.19 ± 0.12 × 10^−4 cm/s"},
      {"measurement": "Peff ± SD", "setting": "[3]; Jejunum, ref 56", "result": "1.47 ± 0.25 × 10^−4 cm/s"},
      {"measurement": "Peff ± SD", "setting": "[3]; Jejunum, ref 58", "result": "1.17 ± 0.23 × 10^−4 cm/s"}
    ]},
    {"compound": "C/C=C(/C=O)[C@@H](CC=O)CC(=O)OCCc1ccc(O)c(O)c1", "note": "[OLEA, Oleacein]", "values": [
      {"measurement": "Detection in portal plasma", "setting": "[4]", "result": "did not observe"},
      {"measurement": "Absorption (%)", "setting": "[5]; mean ± SD, n = 4", "result": "48.98 ± 12.27", "unit": "%"},
      {"measurement": "Mean permeability ratio (Peff) of OLEA/naproxen", "setting": "[5]; p > 0.05", "result": 1.24},
      {"measurement": "Effective intestinal permeability (Peff) at 60 min", "setting": "[5]; rat, pH 7, luminal disappearance, mean ± SD, n = 4, read-out: Intestinal effective permeability coefficient (Peff) ± SD", "result": "183 ± 18", "unit": "×10⁻⁶ cm/s"},
      {"measurement": "Stability in the perfusion solution", "setting": "[1]; over 60 min, p > 0.05", "result": "remained stable"},
      {"measurement": "log P (octanol/water)", "setting": "[6]; ref 16", "result": 1.02},
      {"measurement": "log P (octanol/water)", "setting": "[6]; ref 60", "result": 1.53}
    ]},
    {"compound": "elenolic acid", "values": [
      {"measurement": "Detection in lumen, plasma and ileum tissue samples", "setting": "[2]; [7]", "result": "not detected in any sample"}
    ]}
  ]
}
